Source: ChEMBL document CHEMBL4340547, “Synthesis and SAR development of quinoline analogs as novel P2X7 receptor antagonists” (Bioorg Med Chem Lett, 2019)
Values belong to the molecule of their own block, whether it stands above or below them.

How the values were obtained:
P2X purinoceptor 7 [1] = molecular target: T1, P2X purinoceptor 7 (Rattus norvegicus, UniProt Q64663); test: Antagonist activity at rat P2X7 receptor assessed as inhibition of BzATP-induced YO PRO dye uptake preincubated for 20 mins followed by YO PRO dye and BzATP addition measured after 30 mins by fluorescence assay
T1 sequence (Q64663 whole entry): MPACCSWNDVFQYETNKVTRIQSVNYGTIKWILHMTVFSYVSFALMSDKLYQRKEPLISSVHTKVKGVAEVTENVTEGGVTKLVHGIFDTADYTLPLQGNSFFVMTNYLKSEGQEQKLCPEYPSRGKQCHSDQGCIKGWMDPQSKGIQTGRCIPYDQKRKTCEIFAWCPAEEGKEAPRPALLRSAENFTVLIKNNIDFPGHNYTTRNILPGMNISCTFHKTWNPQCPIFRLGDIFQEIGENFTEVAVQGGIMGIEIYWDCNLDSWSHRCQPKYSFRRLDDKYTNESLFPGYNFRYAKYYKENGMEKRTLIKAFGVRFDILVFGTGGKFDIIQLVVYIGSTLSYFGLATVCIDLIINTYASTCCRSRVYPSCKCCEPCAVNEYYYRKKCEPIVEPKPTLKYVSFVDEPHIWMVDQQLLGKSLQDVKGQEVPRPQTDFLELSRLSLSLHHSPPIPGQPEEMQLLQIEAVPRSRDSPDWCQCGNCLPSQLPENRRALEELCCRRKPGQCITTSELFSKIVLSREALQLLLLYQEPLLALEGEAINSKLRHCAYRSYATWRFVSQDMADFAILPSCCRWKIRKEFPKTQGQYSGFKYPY

[2] = Intrinsic clearance in human liver microsomes; format: ADME, Microsome; settings: read-out: CLH
P2X purinoceptor 7 [3] = molecular target: T2, P2X purinoceptor 7 (Homo sapiens, UniProt Q99572); test: Antagonist activity at P2X7R in LPS-stimulated human THP1 cells assessed as inhibition of BzATP-induced IL-1beta release preincubated for 30 mins followed by BzATP stimulation and measured after 30 mins by sandwich ELISA
T2 sequence (Q99572 whole entry): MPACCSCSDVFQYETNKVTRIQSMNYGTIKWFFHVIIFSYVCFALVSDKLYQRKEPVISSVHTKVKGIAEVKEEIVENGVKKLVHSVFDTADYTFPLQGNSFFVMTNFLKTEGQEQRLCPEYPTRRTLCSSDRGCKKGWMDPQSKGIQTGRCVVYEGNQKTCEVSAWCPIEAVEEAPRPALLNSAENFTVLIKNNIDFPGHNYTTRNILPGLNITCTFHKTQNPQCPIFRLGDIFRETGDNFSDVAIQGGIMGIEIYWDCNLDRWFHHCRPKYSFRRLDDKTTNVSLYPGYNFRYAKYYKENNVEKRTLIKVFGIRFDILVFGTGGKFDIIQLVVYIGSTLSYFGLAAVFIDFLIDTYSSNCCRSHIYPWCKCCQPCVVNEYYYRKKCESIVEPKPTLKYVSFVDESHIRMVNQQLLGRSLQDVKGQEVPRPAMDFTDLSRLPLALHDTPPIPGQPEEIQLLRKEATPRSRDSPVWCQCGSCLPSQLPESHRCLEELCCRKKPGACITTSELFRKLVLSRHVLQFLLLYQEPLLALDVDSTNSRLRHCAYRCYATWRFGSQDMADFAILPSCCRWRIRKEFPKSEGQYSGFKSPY

MDR [4] = test: Apparent permeability across apical to basolateral side in MDCK cells expressing MDR; format: ADME, cell-based, Canis lupus familiaris; settings: dog, MDCK-MDR1
[5] = Intrinsic clearance in mouse liver microsomes; format: ADME, Microsome; settings: read-out: CLH
P2X purinoceptor 7 [6] = molecular target: T3, P2X purinoceptor 7 (Mus musculus, UniProt Q9Z1M0); test: Antagonist activity at mouse P2X7 receptor assessed as inhibition of BzATP-induced YO PRO dye uptake preincubated for 20 mins followed by YO PRO dye and BzATP addition measured after 30 mins by fluorescence assay
T3 sequence (Q9Z1M0 whole entry): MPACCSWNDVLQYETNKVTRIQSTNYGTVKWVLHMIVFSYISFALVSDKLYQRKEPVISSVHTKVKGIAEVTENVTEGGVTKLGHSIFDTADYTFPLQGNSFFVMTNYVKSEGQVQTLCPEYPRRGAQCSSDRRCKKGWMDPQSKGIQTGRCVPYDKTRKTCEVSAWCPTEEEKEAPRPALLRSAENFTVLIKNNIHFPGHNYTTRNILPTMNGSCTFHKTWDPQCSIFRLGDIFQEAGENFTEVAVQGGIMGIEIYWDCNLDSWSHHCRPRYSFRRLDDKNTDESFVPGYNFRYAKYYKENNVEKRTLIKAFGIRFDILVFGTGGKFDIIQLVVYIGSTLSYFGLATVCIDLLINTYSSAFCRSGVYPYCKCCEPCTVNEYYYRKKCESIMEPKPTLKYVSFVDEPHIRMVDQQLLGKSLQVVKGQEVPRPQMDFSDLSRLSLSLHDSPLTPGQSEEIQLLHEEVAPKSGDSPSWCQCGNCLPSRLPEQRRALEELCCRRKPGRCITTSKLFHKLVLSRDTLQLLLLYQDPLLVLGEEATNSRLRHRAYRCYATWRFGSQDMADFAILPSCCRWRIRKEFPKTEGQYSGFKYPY

[7] = Intrinsic clearance in rat liver microsomes; format: ADME, Microsome; settings: read-out: CLH
P2X purinoceptor 7 [8] = molecular target: T2, P2X purinoceptor 7; test: Antagonist activity at human P2X7 receptor expressed in HEK293 cells assessed as inhibition of BzATP-induced YO PRO dye uptake preincubated for 20 mins followed by YO PRO dye and BzATP addition measured after 30 mins by fluorescence assay; format: cell-based
MDR [9] = test: Efflux ratio of apparent permeability in MDCK cells expressing MDR; format: ADME, cell-based, Canis lupus familiaris; settings: dog, MDCK-MDR1
[10] = Protein binding in human plasma assessed as unbound fraction; format: ADME, cell-free
[11] = Dose normalized AUC in mouse at 0.5 mg/kg, po; format: ADME, organism-based; settings: in vivo
[12] = Oral bioavailability in mouse at 0.5 mg/kg; format: ADME, organism-based; settings: in vivo
[13] = molecular target: Voltage-gated inwardly rectifying potassium channel KCNH2 (Homo sapiens, UniProt Q12809); test: Activity at human ERG
Voltage-gated inwardly rectifying potassium channel KCNH2, sequence (Q12809 whole entry): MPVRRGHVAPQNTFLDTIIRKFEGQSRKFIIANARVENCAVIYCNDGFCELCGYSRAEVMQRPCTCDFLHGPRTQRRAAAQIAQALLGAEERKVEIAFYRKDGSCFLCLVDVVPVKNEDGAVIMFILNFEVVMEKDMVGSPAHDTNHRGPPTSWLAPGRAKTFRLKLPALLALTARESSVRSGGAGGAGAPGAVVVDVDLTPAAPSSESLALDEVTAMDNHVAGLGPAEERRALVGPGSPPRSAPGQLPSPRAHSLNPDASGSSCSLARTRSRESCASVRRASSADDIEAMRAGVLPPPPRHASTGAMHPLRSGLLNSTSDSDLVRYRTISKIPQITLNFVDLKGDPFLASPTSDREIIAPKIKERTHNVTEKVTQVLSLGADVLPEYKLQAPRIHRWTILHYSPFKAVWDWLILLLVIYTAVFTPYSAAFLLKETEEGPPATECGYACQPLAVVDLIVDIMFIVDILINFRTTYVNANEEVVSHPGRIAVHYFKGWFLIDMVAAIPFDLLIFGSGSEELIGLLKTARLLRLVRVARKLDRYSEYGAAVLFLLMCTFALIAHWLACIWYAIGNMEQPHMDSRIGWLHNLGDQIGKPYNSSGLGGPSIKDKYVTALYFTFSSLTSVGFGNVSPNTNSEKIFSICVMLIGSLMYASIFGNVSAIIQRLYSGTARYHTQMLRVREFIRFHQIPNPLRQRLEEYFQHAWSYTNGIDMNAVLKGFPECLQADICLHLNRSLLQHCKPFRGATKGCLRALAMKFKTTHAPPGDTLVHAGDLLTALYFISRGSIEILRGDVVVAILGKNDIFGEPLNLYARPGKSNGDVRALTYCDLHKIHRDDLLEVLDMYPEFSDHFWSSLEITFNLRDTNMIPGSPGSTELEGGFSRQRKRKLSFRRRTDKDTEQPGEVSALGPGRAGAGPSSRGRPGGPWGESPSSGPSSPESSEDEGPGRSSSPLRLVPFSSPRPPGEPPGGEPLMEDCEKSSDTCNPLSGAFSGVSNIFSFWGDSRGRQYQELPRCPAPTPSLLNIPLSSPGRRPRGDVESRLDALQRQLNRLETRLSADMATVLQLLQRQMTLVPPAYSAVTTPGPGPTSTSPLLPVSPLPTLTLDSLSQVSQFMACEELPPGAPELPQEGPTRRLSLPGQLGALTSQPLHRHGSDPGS

[14] = Protein binding in human plasma; format: ADME, cell-free; settings: read-out: PPB
[15] = Protein binding in mouse brain assessed as unbound fraction at 5 mg/kg, po; format: ADME, organism-based
[16] = Terminal half life in mouse at 0.2 mg/kg, iv or 0.5 mg/kg, po; format: ADME, organism-based; settings: in vivo, read-out: beta t1/2 (converted)
[17] = Dose normalized AUC in mouse at 0.2 mg/kg, iv; format: ADME, organism-based; settings: in vivo
[18] = Dose normalized Cmax in mouse at 0.5 mg/kg, po; format: ADME, organism-based; settings: in vivo
[19] = Protein binding in mouse plasma assessed as unbound fraction at 5 mg/kg, po; format: ADME, organism-based
[20] = AUC in mouse plasma at 5 mg/kg, po; format: ADME, organism-based
[21] = Dose normalized Cmax in mouse at 0.2 mg/kg, iv; format: ADME, organism-based; settings: in vivo
[22] = Protein binding in mouse plasma assessed as unbound fraction; format: ADME, cell-free
[23] = Protein binding in rat plasma assessed as unbound fraction; format: ADME, cell-free
[24] = Volume of distribution in mouse at 0.2 mg/kg, iv or 0.5 mg/kg, po; format: ADME, organism-based; settings: in vivo
[25] = Clearance in mouse at 0.2 mg/kg, iv or 0.5 mg/kg, po; format: ADME, organism-based; settings: in vivo
[26] = AUC in mouse brain at 5 mg/kg, po; format: ADME, organism-based
[27] = Protein binding in rat plasma; format: ADME, cell-free; settings: read-out: PPB
[28] = Protein binding in mouse plasma; format: ADME, cell-free; settings: read-out: PPB
[29] = Unbound brain to plasma concentration ratio in mouse at 5 mg/kg, po; format: ADME, organism-based; settings: read-out: K(p,uu,brain)

SMILES: C[C@@H]1CCC[C@@](O)(CNC(=O)c2c(Cl)ccc3nc(N4CC[C@@H](C(C)(C)O)C4)ccc23)C1
IC50 (P2X purinoceptor 7 [1]): 130 nM
microsomal CLint [2]: 75 µL/min/mg
IC50 (P2X purinoceptor 7 [3]): 7.4 nM
Papp A→B (MDR [4]): 1.5 ×10⁻⁶ cm/s
microsomal CLint [5]: 68 µL/min/mg
IC50 (P2X purinoceptor 7 [6]): 3690 nM
microsomal CLint [7]: 10 µL/min/mg
IC50 (P2X purinoceptor 7 [8]): 14 nM
efflux ratio (MDR [9]): 34

SMILES: O=C(NCC1CCCC(F)(F)C1)c1c(Cl)ccc2nc(N3CC[C@@H](F)C3)ccc12 (stereo not given in full)
microsomal CLint [2]: 41 µL/min/mg
IC50 (P2X purinoceptor 7 [3]): 118 nM
Papp A→B (MDR [4]): 16.4 ×10⁻⁶ cm/s
microsomal CLint [5]: 102 µL/min/mg
IC50 (P2X purinoceptor 7 [6]): 2000 nM
microsomal CLint [7]: 102 µL/min/mg
IC50 (P2X purinoceptor 7 [8]): 4.9 nM
efflux ratio (MDR [9]): 1.8

SMILES: COCCNc1ccc2c(C(=O)NCC3CCC(F)(F)CC3)c(Cl)ccc2n1
IC50 (P2X purinoceptor 7 [3]): 180 nM
IC50 (P2X purinoceptor 7 [8]): 89 nM

SMILES: COCCOc1ccc2c(C(=O)NCC3CCC(F)(F)CC3)c(Cl)ccc2n1
IC50 (P2X purinoceptor 7 [3]): 140 nM
IC50 (P2X purinoceptor 7 [8]): 25 nM

SMILES: O=C(NCC1CCC(F)(F)CC1)c1c(Cl)ccc2nc(N3CC[C@H](F)C3)ccc12
fraction unbound [10]: 0.055
IC50 (P2X purinoceptor 7 [1]): 5100 nM
AUC/dose [11]: 72.9 ng·h/mL
bioavailability [12]: 31%
Activity [13]: 30 µM
fraction unbound [14]: 0.03 to 0.1
microsomal CLint [2]: 10 µL/min/mg
IC50 (P2X purinoceptor 7 [3]): 109 nM
fraction unbound [15]: 0.03
Papp A→B (MDR [4]): 14.1 to 14.4 ×10⁻⁶ cm/s
half-life [16]: 28.8 min
AUC/dose [17]: 238 ng·h/mL
Cmax/dose [18]: 75.1 ng/mL
fraction unbound [19]: 0.03
AUC [20]: 84.7 ng·h/mL
Cmax/dose [21]: 545 ng/mL
fraction unbound [22]: 0.03
microsomal CLint [5]: 49 µL/min/mg
IC50 (P2X purinoceptor 7 [6]): 2040 nM
microsomal CLint [7]: 21 µL/min/mg
fraction unbound [23]: 0.041
IC50 (P2X purinoceptor 7 [8]): 8.2 nM
efflux ratio (MDR [9]): 0.85
Vd [24]: 1.81 L/kg
clearance [25]: 69.8 mL/min/kg
AUC [26]: 30.9 ng·h/mL
fraction unbound [27]: 0.03 to 0.1
fraction unbound [28]: 0.03 to 0.1
Kp uu [29]: 0.37

SMILES: CC1(C)OB(C2=CCCC2)OC1(C)C
IC50 (P2X purinoceptor 7 [3]): 75 nM
IC50 (P2X purinoceptor 7 [8]): 31 nM

The remaining molecules from weak to strong by IC50 (P2X purinoceptor 7 [3]), led by results:

IC50 (P2X purinoceptor 7 [3]): 90 nM
IC50 (P2X purinoceptor 7 [8]): 36 nM
SMILES: O=C(NCC1CCC(F)(F)CC1)c1c(Cl)ccc2nc(C3=CCCC3)ccc12

IC50 (P2X purinoceptor 7 [3]): 76 nM
IC50 (P2X purinoceptor 7 [8]): 72 nM
SMILES: O=C(NCC1CCC(F)(F)CC1)c1c(Cl)ccc2nc(NCCO)ccc12

microsomal CLint [2]: 80 µL/min/mg
IC50 (P2X purinoceptor 7 [3]): 75 nM
Papp A→B (MDR [4]): 6 ×10⁻⁶ cm/s
microsomal CLint [5]: 24 µL/min/mg
microsomal CLint [7]: 25 µL/min/mg
IC50 (P2X purinoceptor 7 [8]): 50 nM
efflux ratio (MDR [9]): 6.9
SMILES: CN(C)[C@H]1CCN(c2ccc3c(C(=O)NCC4CCC(F)(F)CC4)c(Cl)ccc3n2)C1

microsomal CLint [2]: 45 µL/min/mg
IC50 (P2X purinoceptor 7 [3]): 40 nM
Papp A→B (MDR [4]): 6.2 ×10⁻⁶ cm/s
microsomal CLint [5]: 50 µL/min/mg
microsomal CLint [7]: 22 µL/min/mg
IC50 (P2X purinoceptor 7 [8]): 27 nM
efflux ratio (MDR [9]): 7.2
SMILES: CN(C)[C@@H]1CCN(c2ccc3c(C(=O)NCC4CCC(F)(F)CC4)c(Cl)ccc3n2)C1
